Data set [1] is described as follows: Hepatocyte stability, human. The format is in vitro ADME. The conditions noted are these: human, hepatocytes; read-out: Hepatocyte Stability (t1/2).
Data set [2] is described as follows: Liver microsome stability, dog. The conditions noted are these: liver microsomes, read-out: Liver Microsome Stability (t1/2). The format is in vitro ADME. (Liver microsomes are a subcellular fraction often used to study metabolism.)
Data set [3] in a line: Liver microsome stability, rhesus monkey. The format is in vitro ADME. The settings on record: liver microsomes, read-out: Liver Microsome Stability (t1/2).
Data set [4] can be described thus: Hepatocyte stability, rhesus monkey. The conditions noted are these: hepatocytes, read-out: Hepatocyte Stability (t1/2). The format is in vitro ADME.
Data set [5] in a line: Metabolic stability in liver microsome and hepatocytes of multiple animal species (overall statement). The format is in vitro ADME.
Another data set can be described thus: PK profile in rats. The format is in vivo, rat. The settings on record: for bioavailability: oral.
The nature of data set [6]: Liver microsome stability, rat. The settings on record: liver microsomes, read-out: Liver Microsome Stability (t1/2). The format is in vitro ADME.
A short description of data set [7]: Hepatocyte stability, rat. The format is in vitro ADME. The conditions noted are these: hepatocytes, read-out: Hepatocyte Stability (t1/2).
Data set [8] is described as follows: Hepatocyte stability, dog. The format is in vitro ADME. The settings on record: hepatocytes, read-out: Hepatocyte Stability (t1/2).
For data set [9], the target named is T1, full-length human Mineralocorticoid Receptor (MR) (Homo sapiens, UniProt P08235).
T1 construct: host or cells: PathHunter CHO-K1 MR cells
T1 sequence (P08235 1-984): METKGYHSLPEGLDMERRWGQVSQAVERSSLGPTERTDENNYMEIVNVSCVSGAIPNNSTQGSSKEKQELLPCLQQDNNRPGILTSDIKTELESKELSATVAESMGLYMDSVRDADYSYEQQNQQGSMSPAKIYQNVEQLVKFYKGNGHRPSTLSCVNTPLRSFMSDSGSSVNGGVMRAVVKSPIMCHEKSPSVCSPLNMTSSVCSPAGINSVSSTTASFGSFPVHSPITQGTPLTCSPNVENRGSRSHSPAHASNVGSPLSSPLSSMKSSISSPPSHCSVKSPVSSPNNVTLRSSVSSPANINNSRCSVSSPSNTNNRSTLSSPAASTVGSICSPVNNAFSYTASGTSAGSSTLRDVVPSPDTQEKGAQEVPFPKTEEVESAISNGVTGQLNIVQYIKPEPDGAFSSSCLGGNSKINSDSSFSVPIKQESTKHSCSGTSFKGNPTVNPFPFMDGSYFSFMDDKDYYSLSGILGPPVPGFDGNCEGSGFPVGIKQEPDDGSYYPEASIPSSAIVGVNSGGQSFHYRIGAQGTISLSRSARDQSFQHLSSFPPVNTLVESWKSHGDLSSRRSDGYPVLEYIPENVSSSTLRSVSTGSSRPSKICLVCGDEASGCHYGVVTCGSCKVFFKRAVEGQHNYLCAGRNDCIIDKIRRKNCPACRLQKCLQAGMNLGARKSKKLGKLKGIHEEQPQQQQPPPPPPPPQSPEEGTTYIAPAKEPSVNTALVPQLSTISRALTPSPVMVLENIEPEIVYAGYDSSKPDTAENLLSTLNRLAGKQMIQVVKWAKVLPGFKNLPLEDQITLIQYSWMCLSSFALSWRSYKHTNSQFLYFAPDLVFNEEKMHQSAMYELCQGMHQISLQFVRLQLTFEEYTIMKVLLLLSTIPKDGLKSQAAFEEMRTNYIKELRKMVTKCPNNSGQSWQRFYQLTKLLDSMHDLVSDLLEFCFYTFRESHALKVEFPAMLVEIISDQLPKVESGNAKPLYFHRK
Put plainly: human MR NH Pro assay (PathHunter Protein:Protein interaction assay), MR antagonism. The conditions noted are these: IP = inflection point of the dose-response curve; CHO-K1 cells overexpressing human MR, aldosterone about 0.3 nM to about 1 nM, 6 hours at 37° C. The format is cell-based. In a few lines: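 PathHunter CHO-K1 MR cells (10K/well) plated overnight at 37°C, 5% CO2, then exposed 6 h to a 10-point titration starting at 36.7 μM final, in duplicate, DMSO <1%. MR–coactivator peptide interaction read by luminescence after 1 h with DiscoveRx detection reagent at room temperature.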

Data set [10] can be described thus: Liver microsome stability, human. The format is in vitro ADME.

Each structure is given as a SMILES string.

Take `CS(=O)(=O)Nc1cccc2c1cnn2C(CC(F)F)(C(N)=O)c1ccc(C(F)(F)F)cc1` (single isomer, unassigned) [Compound 46, 4,4-difluoro-2-(4-(methylsulfonamido)-1H-indazol-1-yl)-2-(4-(trifluoromethyl)phenyl)butanamide]: the half-life is more than 1.5 h in data set [1]; 2.25 h in [2]; 1.53 h in data set [3]; more than 1.5 h in [4]; 4.2 h in “PK profile in rats” (rat, in vivo); 1.62 h in [6]. The half-life in [7] was more than 1.5 h; in [8], more than 1.5 h; in data set [10] (human, liver microsomes, read-out: Liver Microsome Stability (t1/2)) it was 2.3 h. Besides, the “metabolic stability in liver microsome and hepatocytes of multiple animal species (in words)” value in [5] was “good metabolic stability”. Further, in “PK profile in rats”, the “PK profile in rats (in words)” value is given as “good PK profile”. In “PK profile in rats”, this compound had an AUCN po of 1.9 µM·kg·h/mg. The clearance in the data set “PK profile in rats” (rat, in vivo) was 6.2 mL/min/kg. Also, the bioavailability in “PK profile in rats” (rat, in vivo) amounted to 31%. Besides, in data set [9], the IC50 came to 76 nM.
`CCC(c1ccc(C(F)(F)F)cc1)(C(O)C(F)F)n1ncc2c(NS(C)(=O)=O)cccc21` (single isomer, unassigned) [Compound 47, N-(1-(1,1-difluoro-2-hydroxy-3-(4-(trifluoromethyl)phenyl)pentan-3-yl)-1H-indazol-4-yl)methanesulfonamide]: the half-life was more than 1.5 h in data set [1]; 2.7 h in data set [2]; 0.7 h in data set [3]; more than 1.5 h in data set [4]; 2.57 h in data set [6]; more than 1.5 h in [7]. Besides, the half-life in data set [8] is more than 1.5 h. Further, in data set [5], the “metabolic stability in liver microsome and hepatocytes of multiple animal species (in words)” value is “good metabolic stability”. For the same compound, the Cl in the data set “PK profile in rats” amounted to 3.8 mL/min/kg. Moreover, the “PK profile in rats (in words)” value in “PK profile in rats” is listed as “good PK profile”. In “PK profile in rats”, this compound showed a t1/2 of 9.9 h. The compound also came in with an AUCN po in “PK profile in rats” of 8.9 µM·kg·h/mg. In the data set “PK profile in rats” (rat, in vivo), this compound had a bioavailability of 77%. This compound also had an IC50 in data set [9] of 11 nM. The “Liver Microsome Stability (t1/2)” value in data set [10] (Human) was 1.03 h.

By clearance is commonly meant the volume of plasma or blood freed of the substance per unit of time. By bioavailability is commonly meant dose-corrected exposure relative to a reference, in per cent. In general, IC50 refers to the midpoint of a concentration-inhibition curve.
